Patent US7671065B2, “Pyridine derivatives as potassium ion channel openers” (Janssen Pharmaceutica N.V., priority 2005, dated 2010)

Biological target: T1, KATP channels (Homo sapiens, UniProt O60706+Q14654)
T1 construct: TE671 human medulloblastoma cells were obtained from ATCC; host or cells: TE671 human medulloblastoma cells
Assay: Potassium Channel Assay (FLIPR membrane potential dye, TE671 cells)
Format: cell-based
Settings: TE671 human medulloblastoma cells, room temperature, fluorescence change monitored for 3 minutes
Experimental: TE671 human medulloblastoma cells were obtained from ATCC and grown in Dulbecco's modified Eagle's medium (DMEM) supplemented with 10% fetal bovine serum, 100 U/ml penicillin and 100 U/ml streptomycine.
The day before testing, the cells were plated in black 96-well plates at 50K/well. On the day of testing, the growth media was removed, then 100 μl of FLIPR buffer (20 mM HEPES, 120 mM NaCl, 2 mM KCl, 2 mM CaCl2, 1 mM MgCl2, 5 mM Glucose) and 100 μl of Membrane Potential Assay Dye (Molecular Devices) dissolved in FLIPR buffer were added to each well. The cells were incubated at room temperature for 15 to 30 min.
The effect of test compounds on KATP channels were evaluated on a fluorometric imaging plate reader (FLIPR, Molecular Devices) at room temperature. After a baseline period, 50 μl of 5× stock solution of test compound prepared in FLIPR buffer was added and fluorescence change was monitored for 3 minutes. After this reading, glyburide, a KATP channel blocker, was added to a final concentration of 5 μM to check the specificity of the test compound as a KATP channel opener. Hyperpolarization resulting from KATP channel opening was observed as a decrease in fluorescence intensity.
Representative compounds of the present invention were tested according to the procedure described above, with results as listed in Table 7 below.

T1 sequence (Q14654 whole entry): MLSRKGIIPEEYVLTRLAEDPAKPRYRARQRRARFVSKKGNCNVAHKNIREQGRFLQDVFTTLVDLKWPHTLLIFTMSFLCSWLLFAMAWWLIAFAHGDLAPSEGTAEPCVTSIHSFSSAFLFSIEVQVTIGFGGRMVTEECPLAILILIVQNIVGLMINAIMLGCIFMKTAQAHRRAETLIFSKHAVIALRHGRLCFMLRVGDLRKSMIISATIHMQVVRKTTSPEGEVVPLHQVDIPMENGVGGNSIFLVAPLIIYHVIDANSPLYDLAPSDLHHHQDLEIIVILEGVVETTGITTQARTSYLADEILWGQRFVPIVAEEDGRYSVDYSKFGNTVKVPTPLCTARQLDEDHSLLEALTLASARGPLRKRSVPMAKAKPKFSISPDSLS
T1 sequence (O60706 1-1549 isoform O60706-2): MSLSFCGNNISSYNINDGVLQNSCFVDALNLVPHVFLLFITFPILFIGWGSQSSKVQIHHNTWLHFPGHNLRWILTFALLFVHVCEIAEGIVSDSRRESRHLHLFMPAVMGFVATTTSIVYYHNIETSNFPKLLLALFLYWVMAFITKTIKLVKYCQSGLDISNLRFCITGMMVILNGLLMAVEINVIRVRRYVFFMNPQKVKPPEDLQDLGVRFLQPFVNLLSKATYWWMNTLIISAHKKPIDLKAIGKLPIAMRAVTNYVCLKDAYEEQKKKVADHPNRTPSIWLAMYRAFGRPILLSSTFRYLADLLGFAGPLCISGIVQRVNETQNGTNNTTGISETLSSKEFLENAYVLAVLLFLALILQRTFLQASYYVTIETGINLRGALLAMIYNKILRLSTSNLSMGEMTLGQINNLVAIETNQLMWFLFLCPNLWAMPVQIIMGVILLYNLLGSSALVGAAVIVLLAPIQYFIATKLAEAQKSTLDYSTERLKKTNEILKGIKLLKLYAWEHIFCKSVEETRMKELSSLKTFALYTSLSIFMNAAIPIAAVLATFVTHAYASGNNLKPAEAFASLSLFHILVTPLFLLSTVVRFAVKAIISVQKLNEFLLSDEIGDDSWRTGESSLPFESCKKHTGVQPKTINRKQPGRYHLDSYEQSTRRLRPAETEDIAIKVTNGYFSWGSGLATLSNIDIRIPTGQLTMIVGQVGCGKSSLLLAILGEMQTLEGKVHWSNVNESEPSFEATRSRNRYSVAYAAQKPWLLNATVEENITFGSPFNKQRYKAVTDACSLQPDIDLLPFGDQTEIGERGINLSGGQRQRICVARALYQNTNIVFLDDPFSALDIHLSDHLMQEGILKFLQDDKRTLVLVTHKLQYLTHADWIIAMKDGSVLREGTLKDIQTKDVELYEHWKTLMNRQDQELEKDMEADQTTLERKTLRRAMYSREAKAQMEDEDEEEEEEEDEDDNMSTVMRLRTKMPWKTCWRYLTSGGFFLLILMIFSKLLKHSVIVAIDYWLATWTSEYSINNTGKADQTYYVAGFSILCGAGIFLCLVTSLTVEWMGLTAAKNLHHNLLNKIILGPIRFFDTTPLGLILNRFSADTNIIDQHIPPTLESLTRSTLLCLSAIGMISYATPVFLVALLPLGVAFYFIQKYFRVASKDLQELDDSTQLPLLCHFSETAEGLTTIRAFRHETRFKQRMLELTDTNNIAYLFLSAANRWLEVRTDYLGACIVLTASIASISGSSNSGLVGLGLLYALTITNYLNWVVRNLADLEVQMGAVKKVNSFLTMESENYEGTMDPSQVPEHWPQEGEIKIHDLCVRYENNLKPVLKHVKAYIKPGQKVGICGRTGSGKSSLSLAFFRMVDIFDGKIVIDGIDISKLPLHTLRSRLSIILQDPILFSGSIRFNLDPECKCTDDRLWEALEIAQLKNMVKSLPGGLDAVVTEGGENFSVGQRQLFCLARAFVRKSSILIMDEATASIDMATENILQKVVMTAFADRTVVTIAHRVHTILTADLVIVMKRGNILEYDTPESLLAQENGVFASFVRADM

Row | SMILES | EC50 [µM] | % Stimulation [%]
1 | N#Cc1cccc(-c2ccncc2C(O)c2ccc(F)cc2)c1 (stereo not drawn) [Compound 20, 3-{3-[(4-Fluoro-phenyl)-hydroxy-methyl]-pyridin-4-yl}-benzonitrile] | 19.4 | –
2 | CCOC(=O)c1cnc2cc(C(F)(F)F)ccc2c1-c1ccc(C)c(C)c1 [Compound 13, 4-(3,4-Dimethyl-phenyl)-7-trifluoromethyl-quinoline-3-carboxylic acid ethyl ester] | > 30 | 0
3 | CCOC(=O)c1cnc2cc(C(F)(F)F)ccc2c1-c1cccc(C#N)c1 [Compound 1, 4-(3-Cyano-phenyl)-7-trifluoromethyl-quinoline-3-carboxylic acid ethyl ester] | > 30 | 36
4 | CCOC(=O)c1cnc2cc(C(F)(F)F)ccc2c1-c1cccc(C(F)(F)F)c1 [Compound 10, 7-Trifluoromethyl-4-(3-trifluoromethyl-phenyl)-quinoline-3-carboxylic acid ethyl ester] | > 30 | 22
5 | COc1ccc(C(O)c2cnccc2C(=O)c2ccccc2)cc1F (stereo not drawn) [Compound 45, {3-[(3-Fluoro-4-methoxy-phenyl)-hydroxy-methyl]-pyridin-4-yl}-phenyl-methanone] | 11.6 | –
6 | N#Cc1cccc(-c2ccncc2C=O)c1 [Compound 51, 3-(3-Formyl-pyridin-4-yl)-benzonitrile] | > 30 | 48
7 | CCOC(=O)c1cnc2cc(C(F)(F)F)ccc2c1-c1ccc(-c2ccccc2)cc1 [Compound 5, 4-Biphenyl-4-yl-7-trifluoromethyl-quinoline-3-carboxylic acid ethyl ester] | > 30 | 33
8 | COc1ccccc1C(O)c1cnccc1-c1cccc(C#N)c1 (stereo not drawn) [Compound 28, 3-{3-[Hydroxy-(2-methoxy-phenyl)-methyl]-pyridin-4-yl}-benzonitrile] | 10.2 | –
9 | Cc1ccc(F)cc1C(O)c1cnccc1-c1cccc(C#N)c1 (stereo not drawn) [Compound 38, 3-{3-[(5-Fluoro-2-methyl-phenyl)-hydroxy-methyl]-pyridin-4-yl}-benzonitrile] | > 30 | 63
10 | CSc1ccc(C(O)c2cnccc2-c2cccc(C#N)c2)cc1 (stereo not drawn) [Compound 34, 3-{3-[Hydroxy-(4-methylsulfanyl-phenyl)-methyl]-pyridin-4-yl}-benzonitrile] | 20.8 | –
11 | CCOC(=O)c1cnc2cc(C(F)(F)F)ccc2c1-c1cccc(C(C)=O)c1 [Compound 7, 4-(3-Acetyl-phenyl)-7-trifluoromethyl-quinoline-3-carboxylic acid ethyl ester] | > 30 | 2
